{"source": "ChEMBL document CHEMBL1150146", "about": "“New terpenoids from the brown alga Stypopodium zonale” (J Nat Prod, 2002)", "type_in_all_cases": "functional, cell-based", "key": {"[1]": {"system": "A549", "assay": "Cytotoxicity against human A549 cells"}, "[2]": {"system": "HT-29", "assay": "Cytotoxicity against human HT-29 cells"}, "[3]": {"assay": "Cytotoxicity against human H116 cells"}}}
{"smiles": "COC(=O)CC[C@@H]1C(=C(C)C)CC[C@H]2[C@@]1(C)CC[C@H](C)[C@]2(C)Cc1cc(O)cc(C)c1O", "values": [{"measurement": "IC50", "setting": "[1]", "result": 2.5, "unit": "mg/L"}, {"measurement": "IC50", "setting": "[2]", "result": "< 2.5", "unit": "mg/L"}, {"measurement": "IC50", "setting": "[3]", "result": 2.5, "unit": "mg/L"}]}
